Results taken from patent publication US20090004185A1, “AMINO-SUBSTITUTED QUINAZOLINE DERIVATIVES AS INHIBITORS OF BETA-CATENIN/TCF-4 PATHWAY AND CANCER TREATMENT AGENTS” (WYETH, priority 2007, published 2009).

Tests used:
β-catenin/Tcf-4 = test: cells; type: cell-based; conditions: Homo sapiens, 24 hours of incubation with compound, ratio Firefly/Renilla luciferase
How it was run: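 SW480-derived lines with integrated reporters (Tcf-4-driven firefly luciferase; SV40 firefly as specificity control; SV40 Renilla for cell number/toxicity), treated 24 hours with titrated compounds, final 0.316% DMSO. Dual-luciferase read-out; firefly/Renilla ratio as % of control, duplicate plates, IC50 (nM) from curve fit.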

SV40-Luc = SV40-Luc control luciferase reporter assay, SV 5A8 cell line (SV40-Luc and SV40-R-Luc), control for non-specific inhibitors; type: cell-based, human; conditions: Homo sapiens, SV5A8, 24 h, SV 5A8 cells derived from SW480; 24 hours of incubation with compound; ratio Firefly/Renilla luciferase
How it was run: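 Compound exposure lasted 24 h, starting 20-24 h after seeding 1×10^4 cells/well, with titrated doses and 0.316% final DMSO. Readout was dual firefly/Renilla luminescence; Renilla under an SV40 promoter corrects for cell number and toxicity, and SV 5A8 (SV40 firefly) flags non-specific inhibitors versus Tcf-4-driven lines 33.13 and 22C11. IC50s came from the F/R ratio (% of control).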

[1] = SW480, 24 h, Tcf 33.13 cells derived from SW480
[2] = Tcf22C11, 24 h, Tcf 22C11 cells derived from SW480

Row | Structure (SMILES) | IC50 (β-catenin/Tcf-4; [1]) [nM] | IC50 (β-catenin/Tcf-4; [2]) [nM] | IC50 (SV40-Luc) [nM]
1 | COC(=O)c1ccc2nc(N(C)C)nc(NCc3ccc(NC(=O)c4ccc(F)cc4)cc3)c2c1 [Example 70, methyl 2-(dimethylamino)-4-({4-[(4-fluorobenzoyl)amino]benzyl}amino)quinazoline-6-carboxylate] | 1480 | 2140 | > 10600
2 | CN(C)c1nc(NCc2ccc(NC(=O)c3ccc(Cl)nc3)cc2)c2cc(I)ccc2n1 [Example 72, 6-chloro-N-[4-({[2-(dimethylamino)-6-iodoquinazolin-4-yl]amino}methyl)phenyl]nicotinamide] | 456 | 534 | > 4470
3 | CN(C)c1nc(NCc2ccc(NC(=O)C3CCN(Cc4ccccc4)CC3)cc2)c2cc(I)ccc2n1 [Example 74, 1-benzyl-N-[4-({[2-(dimethylamino)-6-iodoquinazolin-4-yl]amino}methyl)phenyl]piperidine-4-carboxamide] | 1380 | 950 | > 8060
4 | C=Cc1ccc2nc(N(C)C)nc(NCc3ccc(NC(=O)C4CCN(Cc5ccccc5)CC4)cc3)c2c1 [Example 75, 1-benzyl-N-[4-({[2-(dimethylamino)-6-vinylquinazolin-4-yl]amino}methyl)phenyl]-piperidine-4-carboxamide] | 287 | 437 | > 4490
5 | Cc1cccc2c(NCc3ccc(NC(=O)C4CCN(Cc5ccccc5)CC4)cc3)nc(N(C)C)nc12 [Example 76, 1-benzyl-N-[4-({[2-(dimethylamino)-8-methylquinazolin-4-yl]amino}methyl)phenyl]piperidine-4-carboxamide] | 2150 | 1560 | > 9170
6 | Cc1ccc2nc(N3CCCC3)nc(NCc3ccc(NC(=O)C4CCN(Cc5ccccc5)CC4)cc3)c2c1 [Example 77, 1-benzyl-N-(4-{[(6-methyl-2-pyrrolidin-1-ylquinazolin-4-yl)amino]methyl}phenyl)piperidine-4-carboxamide] | 847 | 2260 | > 8230
7 | Cc1ccc2nc(N3C[C@@H](C)N[C@@H](C)C3)nc(NCc3ccc(NC(=O)C4CCN(Cc5ccccc5)CC4)cc3)c2c1 [Example 78, 1-benzyl-N-{4-[({2-[(3R,5S)-3,5-dimethylpiperazin-1-yl]-6-methylquinazolin-4-yl}amino)methyl]phenyl}piperidine-4-carboxamide] | 955 | 1390 | > 17300
8 | Cc1ccc2nc(N3CCC3)nc(NCc3ccc(NC(=O)C4CCN(Cc5ccccc5)CC4)cc3)c2c1 [Example 84, N-(4-{[(2-azetidin-1-yl-6-methylquinazolin-4-yl)amino]methyl}phenyl)-1-benzylpiperidine-4-carboxamide] | 423 | 434 | > 9310
9 | CN(C)c1nc(NCc2ccc(NC(=O)c3ccc(F)cc3)cc2)c2ccc(CN)cc2n1 [Example 90, N-[4-({[7-(aminomethyl)-2-(dimethylamino)quinazolin-4-yl]amino}methyl)phenyl]-4-fluorobenzamide] | 1300 | 2860 | > 4830
10 | C/C=C/c1ccc2c(NCc3ccc(NC(=O)c4ccc(F)cc4)cc3)nc(N(C)C)nc2c1 [Example 96, N-{4-[({2-(dimethylamino)-7-[(1E)-prop-1-en-1-yl]quinazolin-4-yl}amino)methyl]phenyl}-4-fluorobenzamide] | 511 | 497 | > 2540
11 | CN(C)c1nc(NCc2ccc(NC(=O)c3ccc(F)cc3)cc2)c2ccc(-c3cccnc3Cl)cc2n1 [Example 100, N-[4-({[7-(2-chloropyridin-3-yl)-2-(dimethylamino)quinazolin-4-yl]amino}methyl)phenyl]-4-fluorobenzamide] | 541 | 548 | > 17700
12 | CN(C)c1nc(NCc2ccc(NC(=O)c3ccc(F)cc3)cc2)c2ccc(-c3cc4ccccc4o3)cc2n1 [Example 101, N-[4-({[7-(1-benzofuran-2-yl)-2-(dimethylamino)quinazolin-4-yl]amino}methyl)phenyl]-4-fluorobenzamide] | 2950 | 2250 | > 17600
13 | C[C@H](Nc1nc(N(C)C)nc2cc(I)ccc12)c1ccc(NC(=O)c2ccc(Cl)nc2)cc1 [Example 105, 6-chloro-N-[4-((1S)-1-{[2-(dimethylamino)-7-iodoquinazolin-4-yl]amino}ethyl)phenyl]nicotinamide] | 1470 | 3780 | > 8210

More lines, now with the values ahead:

Row | IC50 (β-catenin/Tcf-4; [1]) [nM] | IC50 (β-catenin/Tcf-4; [2]) [nM] | IC50 (SV40-Luc) [nM] | Structure (SMILES)
14 | 2340 | 2990 | > 11200 | CN(C)c1nc(NCc2ccc(NC(=O)c3ccc(F)cc3)cc2)c2cc(CO)ccc2n1 [Example 71, N-[4-({[2-(dimethylamino)-6-(hydroxymethyl)quinazolin-4-yl]amino}methyl)phenyl]-4-fluorobenzamide]
15 | 194 | 223 | > 681 | C=Cc1ccc2nc(N(C)C)nc(NCc3ccc(NC(=O)c4ccc(Cl)nc4)cc3)c2c1 [Example 73, 6-chloro-N-[4-({[2-(dimethylamino)-6-vinylquinazolin-4-yl]amino}methyl)phenyl]nicotinamide]
16 | 1680 | 2350 | > 16000 | Cc1ccc2nc(N3CCN(c4ccccn4)CC3)nc(NCc3ccc(NC(=O)C4CCN(Cc5ccccc5)CC4)cc3)c2c1 [Example 79, 1-benzyl-N-[4-({[6-methyl-2-(4-pyridin-2-ylpiperazin-1-yl)quinazolin-4-yl]amino}methyl)phenyl]piperidine-4-carboxamide]
17 | 597 | 761 | > 9390 | Cc1ccc2nc(N3CC=CC3)nc(NCc3ccc(NC(=O)C4CCN(Cc5ccccc5)CC4)cc3)c2c1 [Example 80, 1-benzyl-N-[4-({[2-(2,5-dihydro-1H-pyrrol-1-yl)-6-methylquinazolin-4-yl]amino}methyl)phenyl]piperidine-4-carboxamide]
18 | > 8920 | > 8920 | > 17800 | Cc1ccc2nc(NCc3ccco3)nc(NCc3ccc(NC(=O)C4CCN(Cc5ccccc5)CC4)cc3)c2c1 [Example 81, 1-benzyl-N-{4-[({2-[(2-furylmethyl)amino]-6-methylquinazolin-4-yl}amino)methyl]phenyl}piperidine-4-carboxamide]
19 | 891 | 872 | > 7960 | Cc1ccc2nc(N3CCN(c4ncccn4)CC3)nc(NCc3ccc(NC(=O)C4CCN(Cc5ccccc5)CC4)cc3)c2c1 [Example 82, 1-benzyl-N-[4-({[6-methyl-2-(4-pyrimidin-2-ylpiperazin-1-yl)quinazolin-4-yl]amino}methyl)phenyl]piperidine-4-carboxamide]
20 | 425 | 511 | > 4050 | Cc1ccc2nc(N3CCC(N4CCCC4)CC3)nc(NCc3ccc(NC(=O)C4CCN(Cc5ccccc5)CC4)cc3)c2c1 [Example 83, 1-benzyl-N-[4-({[6-methyl-2-(4-pyrrolidin-1-ylpiperidin-1-yl)quinazolin-4-yl]amino}methyl)phenyl]piperidine-4-carboxamide]
21 | 530 | 771 | > 2220 | Cc1ccc2nc(N3CCN[C@H](C)C3)nc(NCc3ccc(NC(=O)C4CCN(Cc5ccccc5)CC4)cc3)c2c1 [Example 85, 1-benzyl-N-{4-[({6-methyl-2-[(3R)-3-methylpiperazin-1-yl]quinazolin-4-yl}amino)methyl]phenyl}piperidine-4-carboxamide]
22 | 599 | 499 | > 2560 | C/C=C\c1ccc2c(NCc3ccc(NC(=O)c4ccc(F)cc4)cc3)nc(N(C)C)nc2c1 [Example 97, N-{4-[({2-(dimethylamino)-7-[(1Z)-prop-1-en-1-yl]quinazolin-4-yl}amino)methyl]phenyl}-4-fluorobenzamide]
23 | 2960 | > 2410 | > 19200 | CN(C)c1nc(NCc2ccc(NC(=O)c3ccc(F)cc3)cc2)c2ccc(-c3ccccc3C=O)cc2n1 [Example 98, N-[4-({[2-(dimethylamino)-7-(2-formylphenyl)quinazolin-4-yl]amino}methyl)phenyl]-4-fluorobenzamide]
24 | 2680 | 6820 | > 17900 | CN(C)c1nc(NCc2ccc(NC(=O)c3ccc(F)cc3)cc2)c2ccc(-c3ccc(C=O)cc3)cc2n1 [Example 99, N-[4-({[2-(dimethylamino)-7-(4-formylphenyl)quinazolin-4-yl]amino}methyl)phenyl]-4-fluorobenzamide]
25 | 825 | 1340 | > 9360 | CN(C)c1nc(NCc2ccc(NC(=O)c3ccc(F)cc3)cc2)c2ccc(/C=C/C(C)(C)C)cc2n1 [Example 102, N-{4-[({2-(dimethylamino)-7-[(1E)-3,3-dimethylbut-1-en-1-yl]quinazolin-4-yl}amino)methyl]phenyl}-4-fluorobenzamide]
26 | 429 | 615 | > 4680 | CCCC/C=C/c1ccc2c(NCc3ccc(NC(=O)c4ccc(F)cc4)cc3)nc(N(C)C)nc2c1 [Example 103, N-{4-[({2-(dimethylamino)-7-[(1E)-hex-1-en-1-yl]quinazolin-4-yl}amino)methyl]phenyl}-4-fluorobenzamide]
27 | 666 | 1010 | > 2540 | CN(C)c1nc(NCc2ccc(NC(=O)c3ccc(F)cc3)cc2)c2ccc(C3CC3)cc2n1 [Example 104, N-[4-({[7-cyclopropyl-2-(dimethylamino)quinazolin-4-yl]amino}methyl)phenyl]-4-fluorobenzamide]
